The target of one test is CDK2/Cyclin A1 (Homo sapiens, UniProt P24941). Type of test: protein-complex assay.
In test [1] the target is T1, Receptor-type tyrosine-protein kinase FLT3 (Homo sapiens, UniProt P36888, ITD).
Another test concerns the target CDK2/Cyclin A2 (Homo sapiens, UniProt P24941). As to the kind of experiment: Inhibition of CDK2/cyclin A2 (unknown origin) in presence of [32P]gammaATP by image analyser. Type of test: protein-complex assay.
The next test relates to MOLM-14. The test can be described thus: Antiproliferative activity against human MOLM-14 cells assessed as cell death measured after 72 hrs by resazurin dye based assay. Type of test: functional. Conditions: MOLM-14, 72 h.
Another test relates to SEM cells. As to the kind of experiment: Antiproliferative activity against human SEM cells assessed as cell death measured after 72 hrs by resazurin dye based assay. In kind it is functional.
Another test relates to CCRF-CEM. As to the kind of experiment: Antiproliferative activity against human CCRF-CEM cells assessed as cell death measured after 72 hrs by resazurin dye based assay. In kind it is functional.
Another test has as its system BaF3. The test can be described thus: Antiproliferative activity against mouse BaF3 cells harboring FLt3 ITD mutant assessed as cell death measured after 72 hrs by resazurin dye based assay. In kind it is functional. To be noted: BaF3, 72 h.
Test [2] has as its target Maternal embryonic leucine zipper kinase (Homo sapiens) (UniProt Q14680). As to the kind of experiment: Inhibition of MELK (unknown origin) assessed as residual activity at 500 nM.
The target in test [3] is Dual specificity tyrosine-phosphorylation-regulated kinase 1B (Homo sapiens) (UniProt Q9Y463). As to the kind of experiment: Inhibition of DYRK1B (unknown origin) assessed as residual activity at 500 nM.
The target in test [4] is T1, Receptor-type tyrosine-protein kinase FLT3. The test can be described thus: Binding affinity to human partial length FLT3 ITD mutant expressed in bacterial expression system by KdELECT Discover assay.
For test [5], the target named is Receptor-type tyrosine-protein kinase FLT3 (Homo sapiens, UniProt P36888, F691L). As to the kind of experiment: Binding affinity to human partial length FLT3 ITD F691L mutant expressed in mammalian expression system by KdELECT Discover assay.
For test [6], the system named is MV4-11. As to the kind of experiment: Induction of apoptosis in human MV4-11 cells assessed as effect on Bcl2 level at 100 nM incubated for 24 hrs by Western blot analysis. In kind it is functional, cell-based.
The subject of test [7] is MV4-11. As to the kind of experiment: Antitumor activity against human MV4-11 cells xenografted in NRG mouse assessed as tumor growth inhibition treated at 50 mg/kg, po via gavage daily for 5 days in a week after 15 days of implantation measured after 21 days by luciferase based relative to control. Type of test: functional. To be noted: MV4-11, po, 504 h, time 21 day.

For the next test, the system named is K562. As to the kind of experiment: cells. To be noted: Homo sapiens, K562, 72 h.

Structures are written as SMILES. Active and inactive are the calls of the source. The calls are words filed in the database; no cut-off is given here.

T1 sequence (P36888 whole entry, looked up, change not shown): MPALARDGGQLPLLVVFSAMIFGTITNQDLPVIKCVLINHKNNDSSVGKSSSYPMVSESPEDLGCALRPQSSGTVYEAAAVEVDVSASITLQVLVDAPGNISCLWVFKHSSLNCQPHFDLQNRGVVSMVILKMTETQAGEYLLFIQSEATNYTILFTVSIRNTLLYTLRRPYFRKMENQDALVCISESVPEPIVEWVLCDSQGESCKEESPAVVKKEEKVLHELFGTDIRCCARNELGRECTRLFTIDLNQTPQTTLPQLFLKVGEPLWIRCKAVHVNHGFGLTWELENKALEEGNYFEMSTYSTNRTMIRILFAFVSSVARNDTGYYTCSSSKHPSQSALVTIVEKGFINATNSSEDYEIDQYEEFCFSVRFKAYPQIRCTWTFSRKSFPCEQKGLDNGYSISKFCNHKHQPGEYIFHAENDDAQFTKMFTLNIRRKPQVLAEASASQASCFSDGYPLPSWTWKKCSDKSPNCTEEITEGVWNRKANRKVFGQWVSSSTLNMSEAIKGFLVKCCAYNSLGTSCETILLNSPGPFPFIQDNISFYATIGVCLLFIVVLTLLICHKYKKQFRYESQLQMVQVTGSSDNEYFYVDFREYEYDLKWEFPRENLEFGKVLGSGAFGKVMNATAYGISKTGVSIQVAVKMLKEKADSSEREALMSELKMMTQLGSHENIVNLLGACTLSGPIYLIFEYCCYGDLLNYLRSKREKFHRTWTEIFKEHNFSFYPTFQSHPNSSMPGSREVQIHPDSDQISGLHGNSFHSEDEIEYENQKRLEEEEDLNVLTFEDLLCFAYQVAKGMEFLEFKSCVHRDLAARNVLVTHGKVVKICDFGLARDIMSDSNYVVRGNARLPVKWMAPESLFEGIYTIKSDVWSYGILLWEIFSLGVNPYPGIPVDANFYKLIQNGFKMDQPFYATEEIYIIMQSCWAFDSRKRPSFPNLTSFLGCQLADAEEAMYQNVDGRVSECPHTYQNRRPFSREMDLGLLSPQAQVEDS
Sequence of Maternal embryonic leucine zipper kinase (Homo sapiens) (Q14680 whole entry, looked up): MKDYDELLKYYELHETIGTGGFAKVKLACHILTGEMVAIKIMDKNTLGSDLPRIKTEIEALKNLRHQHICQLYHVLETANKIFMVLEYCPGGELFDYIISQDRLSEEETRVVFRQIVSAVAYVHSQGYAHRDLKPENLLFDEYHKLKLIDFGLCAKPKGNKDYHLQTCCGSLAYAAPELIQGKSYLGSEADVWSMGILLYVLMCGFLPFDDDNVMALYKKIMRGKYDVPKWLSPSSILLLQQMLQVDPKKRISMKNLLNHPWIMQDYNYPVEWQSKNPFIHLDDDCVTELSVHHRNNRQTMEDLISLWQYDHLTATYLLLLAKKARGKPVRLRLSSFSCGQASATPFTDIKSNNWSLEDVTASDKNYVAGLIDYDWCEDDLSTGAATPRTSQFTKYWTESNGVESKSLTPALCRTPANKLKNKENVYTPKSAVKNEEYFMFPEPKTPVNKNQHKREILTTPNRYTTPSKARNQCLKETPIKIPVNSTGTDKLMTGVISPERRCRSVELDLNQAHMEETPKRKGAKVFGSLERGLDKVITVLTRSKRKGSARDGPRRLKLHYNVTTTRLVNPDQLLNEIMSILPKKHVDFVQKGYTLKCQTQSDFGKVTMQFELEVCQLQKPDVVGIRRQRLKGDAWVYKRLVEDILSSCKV
Sequence of Dual specificity tyrosine-phosphorylation-regulated kinase 1B (Homo sapiens) (Q9Y463 whole entry, looked up): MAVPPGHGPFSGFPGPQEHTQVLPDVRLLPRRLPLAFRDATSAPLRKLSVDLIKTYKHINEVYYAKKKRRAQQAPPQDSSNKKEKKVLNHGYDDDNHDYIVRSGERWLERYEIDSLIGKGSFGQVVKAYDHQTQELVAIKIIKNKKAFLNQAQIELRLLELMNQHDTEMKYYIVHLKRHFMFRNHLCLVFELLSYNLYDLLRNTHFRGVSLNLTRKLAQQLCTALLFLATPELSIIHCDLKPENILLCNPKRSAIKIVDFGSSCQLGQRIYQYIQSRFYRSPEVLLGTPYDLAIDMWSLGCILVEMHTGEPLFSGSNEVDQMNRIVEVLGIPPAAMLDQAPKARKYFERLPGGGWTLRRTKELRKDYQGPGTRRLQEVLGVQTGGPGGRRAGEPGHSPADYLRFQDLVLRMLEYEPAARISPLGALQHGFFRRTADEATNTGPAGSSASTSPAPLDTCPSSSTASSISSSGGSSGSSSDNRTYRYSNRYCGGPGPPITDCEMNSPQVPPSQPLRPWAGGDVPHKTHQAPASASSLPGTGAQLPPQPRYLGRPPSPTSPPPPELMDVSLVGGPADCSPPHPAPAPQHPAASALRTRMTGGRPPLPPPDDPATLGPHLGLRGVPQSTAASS
Sequence of Receptor-type tyrosine-protein kinase FLT3 (Homo sapiens, UniProt P36888, F691L) (P36888 27-993 F691L limits assumed): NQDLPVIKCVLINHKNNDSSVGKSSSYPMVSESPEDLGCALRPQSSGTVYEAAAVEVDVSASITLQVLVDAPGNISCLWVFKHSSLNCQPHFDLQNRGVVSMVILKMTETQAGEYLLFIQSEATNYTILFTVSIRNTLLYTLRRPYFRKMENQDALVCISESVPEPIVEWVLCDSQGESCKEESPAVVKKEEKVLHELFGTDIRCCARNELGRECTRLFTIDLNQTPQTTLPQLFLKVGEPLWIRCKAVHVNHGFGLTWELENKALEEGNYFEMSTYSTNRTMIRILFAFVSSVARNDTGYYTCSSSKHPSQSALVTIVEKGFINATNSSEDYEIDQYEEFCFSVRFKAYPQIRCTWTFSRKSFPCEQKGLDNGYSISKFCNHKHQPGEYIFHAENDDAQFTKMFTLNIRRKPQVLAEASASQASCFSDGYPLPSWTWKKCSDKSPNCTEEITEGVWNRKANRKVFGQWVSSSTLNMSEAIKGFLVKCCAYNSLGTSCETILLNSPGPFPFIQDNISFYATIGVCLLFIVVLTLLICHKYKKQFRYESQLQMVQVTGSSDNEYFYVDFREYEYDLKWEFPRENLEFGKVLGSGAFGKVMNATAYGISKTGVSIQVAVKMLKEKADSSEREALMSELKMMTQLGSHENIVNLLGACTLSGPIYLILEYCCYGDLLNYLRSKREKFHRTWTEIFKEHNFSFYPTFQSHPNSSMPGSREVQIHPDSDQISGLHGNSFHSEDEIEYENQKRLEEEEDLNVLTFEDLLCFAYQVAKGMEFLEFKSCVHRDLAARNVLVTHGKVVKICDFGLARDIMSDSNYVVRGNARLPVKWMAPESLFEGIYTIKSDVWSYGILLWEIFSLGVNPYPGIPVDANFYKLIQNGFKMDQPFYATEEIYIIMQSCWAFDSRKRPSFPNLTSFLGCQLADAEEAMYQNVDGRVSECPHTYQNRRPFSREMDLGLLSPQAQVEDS
Description for CDK2/Cyclin A1: Inhibition of CDK2/Cyclin A1 (unknown origin) at 1 uM using histone H1 as substrate preincubated for 20 mins followed by 33P-ATP addition and measured after 2 hrs by filter binding method
Description for K562: Antiproliferative activity against human K562 cells assessed as cell death measured after 72 hrs by resazurin dye based assay

Regarding `Cc1n[nH]c2ccc3nc(-c4c[nH]nc4C(F)(F)F)c4c(c3c12)CCCC4`, the IC50 is 430 nM on CDK2/Cyclin A1; 6 nM in test [1]; 430 nM on CDK2/Cyclin A2; 26 nM in the test with MOLM-14; 422 nM in the test with SEM cells; 6510 nM with CCRF-CEM. The IC50 with BaF3 amounted to 62 nM; with K562 it was 9820 nM. The Activity in test [2] and in [3] was 4% each time. Further, the figures for the Kd in test [4] and in test [5] were 1.6 nM and 1.3 nM, respectively. Also, the result with MV4-11 [6] was Active. For the same compound, the inhibition in vivo at 50 mg/kg with MV4-11 [7] was 90%.

The record behind these values is ChEMBL document CHEMBL4834472 (J Med Chem, 2021).
